Measured values from patent US9862684B2, “Modulation of K2P channels” (The Regents of the University of California, priority 2013, dated 2018).

Key:
TREK-1 = target: T1, TREK-1 (Mus musculus, UniProt P97438); experiment: Modulation of TREK-1 by select compounds (agonist activity), Table 3; assay type: cell-based, Murine; settings: for EC50: agonist activity on TREK-1
T1 construct: expressed in transfected cells
T1 sequence (P97438 1-411 isoform P97438-2): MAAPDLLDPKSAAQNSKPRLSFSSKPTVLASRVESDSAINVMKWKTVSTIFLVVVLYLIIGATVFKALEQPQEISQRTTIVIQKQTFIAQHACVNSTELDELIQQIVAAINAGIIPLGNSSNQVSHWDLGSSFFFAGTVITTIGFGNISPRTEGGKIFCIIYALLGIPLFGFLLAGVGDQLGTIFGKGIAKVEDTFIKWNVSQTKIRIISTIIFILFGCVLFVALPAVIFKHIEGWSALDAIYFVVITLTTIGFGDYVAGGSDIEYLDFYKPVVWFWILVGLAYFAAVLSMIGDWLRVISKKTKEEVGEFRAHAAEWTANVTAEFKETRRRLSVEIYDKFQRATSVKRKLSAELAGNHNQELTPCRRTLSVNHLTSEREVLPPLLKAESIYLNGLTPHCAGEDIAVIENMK
Description: (§1) Two-electrode voltage clamp recordings were performed from defolliculated stage V-VI Xenopus oocytes 24-48 hours after injection with 0.015-6.0 ng cRNA, using microelectrodes (0.3-3.0 MΩ) filled with 3M KCl. […] Recording solutions (mM): 2K (96 NaCl, 2 KCl, 1.8 CaCl2, 2 MgCl2), 90K (90 KCl, 8 NaCl, 1.8 CaCl2, 2 MgCl2), were buffered 5 mM HEPES pH 7.4. For K2P recordings, currents we elicited by a 1 second long ramp from −150 to +50 mV from a holding potential of −80 mV (2K), or −100 to +50 mV from a holding potential of 0 mV (90K). For KCNQ2 recordings, currents were elicited by a step protocol from −120 to 60 mV, in 20 mV increments, from a holding potential of −80 mV. […] Currents were elicited by a 1 second long ramp from −150 to +50 mV from a holding potential of −80 mV.

K2P2.1 (TREK-1) = target: T2, K2P2.1 (TREK-1) (Mus musculus, UniProt P97438); experiment: Two-electrode voltage clamp of Xenopus oocytes expressing K2P2.1 (TREK-1); assay type: cell-based, Murine; settings: Xenopus oocytes; for effect on K2P2.1 (TREK-1) function / activity (in words): two-electrode voltage clamp
T2 construct: expressed in transfected cells; host or cells: Xenopus oocytes (cRNA injection, pGEMHE/pMO)
T2 sequence (P97438 1-411 isoform P97438-2): T1 sequence (P97438 1-411 isoform P97438-2)
Description: as §1

Row | SMILES | comments (comparison with ML67-33 / ML67-142, dose-response remark) (TREK-1) | % activity at 50 μM (TREK-1) [%] | EC50 (TREK-1) [µM] | further results
1 | OCc1ccc2c(c1)C1(CCCCC1)c1cc(Br)ccc1N2CCc1nnn[nH]1 [ML67-146, 2-bromo-10-[2-(1H-1,2,3,4-tetrazol-5-yl)ethyl]-10H-spiro[acridine-9,1′-cyclohexane]-7-ylmethanol] | Not better than ML67-33 | 25.9 | > 38.5 | –
2 | c1ccc2c(c1)N(CCc1nnn[nH]1)c1ccccc1C21CCCCC1 [ML67-144, 10-[2-(1H-tetrazol-5-yl)ethyl]spiro [acridine-9,1′-cyclohexane]] | Not better than ML67-33 | 32.3 | > 38.5 | –
3 | C#Cc1ccc(S(=O)(=O)NC(=O)CCN2c3ccc(Br)cc3C3(CCCCC3)c3cc(Br)ccc32)cc1 [ML67-150, 3-{2,7-dibromo-10H-spiro[acridine-9,1′-cyclohexane]-10-yl}-N-(4-ethynyl-benzenesulfonyl) propanamide] | Not better than ML67-33 | – | > 38.5 | –
4 | O=C(O)CCN1c2ccc(Br)cc2C2(CCCCC2)c2cc(Br)ccc21 [ML67-147, 3-{2,7-dibromo-10H-spiro[acridine-9,1′-cyclohexane]-10-yl}propanoic acid] | Not better than ML67-33 | 84.1 | > 38.5 | –
5 | O=C(O)CCn1c2ccccc2c2ccccc21 [ML67-2, 3-carbazol-9-ylpropanoic acid] | – | – | – | Emax (fold) at 500 μM (K2P2.1 (TREK-1); at 500 μM): 1.3 ± 0.1 at 500 μM fold; effect on K2P2.1 (TREK-1) function / activity (in words) (K2P2.1 (TREK-1)): reduced activity
6 | O=C(O)CCn1c2ccccc2c2cc(I)ccc21 [ML67-14, 3-(3-iodocarbazol-9-yl)propanoic acid] | No plateau | – | > 500 | –
7 | Clc1ccc2c(c1)c1cc(Cl)ccc1n2[C@H]1C[C@H](c2nnn[nH]2)C1 [ML67-30, 3,6-dichloro-9-[3-(1H-tetrazol-5-yl)cyclobutyl] carbazole (trans)] | – | – | < 125 | –
8 | c1ccc2c(c1)Sc1ccccc1N2CCc1nnn[nH]1 [ML67-36, 10-[2-(1H-tetrazol-5-yl)ethyl] phenothiazine] | – | – | > 38.5 | –
9 | Brc1ccc2c3ccc(Br)cc3n(CCc3nnn[nH]3)c2c1 [ML67-34, 2,7-dibromo-9-[2-(1H-tetrazol-5-yl)ethyl]carbazole] | Not better than ML67-33 | 13.4 | > 38.5 | –
10 | Clc1ccc2c(c1)c1cc(Cl)ccc1n2CCc1nnn[nH]1 [ML67-18, 3,6-dichloro-9-[2-(1H-tetrazol-5-yl)ethyl]carbazole] | – | – | 125 | Emax (fold) (K2P2.1 (TREK-1); fold over basal current, no concentration stated): ~18 fold
11 | Brc1ccc2c(c1)Sc1cc(Br)ccc1N2CCc1nnn[nH]1 [ML67-37, 3,7-dibromo-10-[2-(1H-tetrazol-5-yl)ethyl] phenothiazine] | Not better than ML67-33 | 96 | > 38.5 | –
12 | O=C(O)CCN1c2ccc(Cl)cc2C2(CCCCC2)c2cc(Cl)ccc21 [ML67-141, 3-(2,7-dichlorospiro [acridine-9,1′-cyclohexane]-10-yl)propanoic acid] | Better than ML67-33; not better than (ML67-142) | – | 8.6 to 38.5 | –
13 | Brc1ccc2c(c1)Oc1cc(Br)ccc1N2CCc1nnn[nH]1 [ML67-38, 3,7-dibromo-10-[2-(1H-tetrazol-5-yl)ethyl] phenoxazine] | Not better than ML67-33 | 68.8 | > 38.5 | –
14 | O=C(O)CCN1c2ccc(Cl)cc2Sc2cc(Cl)ccc21 [ML67-26, 3-(3,7-dichloro-phenothiazin-10-yl)propanoic acid] | No plateau | – | ~200 | –
15 | O=C(O)CCC(CN1c2ccc(Br)cc2C2(CCCCC2)c2cc(Br)ccc21)C(=O)O (stereo not shown) [ML67-152, 2-{2,7-dibromo-10H-spiro[acridine-9,1′-cyclohexane]-10-ylmethyl} pentanedioic acid] | No better than ML67-33 | 45 | > 38.5 | –
16 | c1ccc2c(c1)Oc1ccccc1N2CCc1nnn[nH]1 [ML67-35, 10-[2-(1H-tetrazol-5-yl)ethyl] phenoxazine] | Not better than ML67-33 | 17.8 | > 38.5 | –
17 | CC1(C)c2cc(Br)ccc2N(CCc2nnn[nH]2)c2ccc(Br)cc21 [ML67-137, 2,7-dibromo-9,9-dimethyl-10-[2-(1H-tetrazol-5-yl)ethyl]acridine] | – | 100 | – | Emax (fold) at 100 μM (K2P2.1 (TREK-1); at 100 μM (FIG. 4, 7 legends), marked ** in Table 1, footnote not given): 9.2 ± 1.4** fold; effect on K2P2.1 (TREK-1) function / activity (in words) (K2P2.1 (TREK-1)): did not significantly improve activity; % activity at 10 μM (TREK-1; 10 μM): 80%
18 | Clc1ccc2c(c1)C1(CCCCC1)c1cc(Cl)ccc1N2CCc1nnn[nH]1 [ML67-142, 2,7-dichloro-10-[2-(1H-tetrazol-5-yl)ethyl]spiro [acridine-9,1′-cyclohexane]] | – | – | 8.6 | –
19 | Clc1ccc2c(c1)C1(CCOCC1)c1cc(Cl)ccc1N2CCc1nnn[nH]1 [ML67-139, 2,7-dichloro-10-[2-(1H-yl)ethyl]spiro [acridine-9,4′-oxane]] | Not better than ML67-33 | 60.7 | > 38.5 | –
20 | O=C(O)CCCn1c2ccc(Cl)cc2c2cc(Cl)ccc21 [ML67-15, 4-(3,6-dichlorocarbazol-9-yl) butanoic acid] | – | – | – | Emax (fold) at 200 μM (K2P2.1 (TREK-1); at 200 μM): 4.7 ± 0.9 at 200 μM fold; effect on K2P2.1 (TREK-1) function / activity (in words) (K2P2.1 (TREK-1)): did not significantly improve potency
21 | CS(=O)(=O)NC(=O)CCN1c2ccc(Br)cc2C2(CCCCC2)c2cc(Br)ccc21 [ML67-148, 3-{2,7-dibromo-10H-spiro[acridine-9,1′-cyclohexane]-10-yl}-N-methanesulfonyl-propanamide] | Better than ML67-33; Not better than (ML67-142) | – | 8.6 to 38.5 | –
22 | Clc1ccc2c(c1)C1(CCCC1)c1cc(Cl)ccc1N2CCc1nnn[nH]1 [ML67-138, 2,7-dichloro-10-[2-(1H-tetrazol-5-yl)ethyl]spiro [acridine-9,1′-cyclopentane]] | – | – | 18.3 | –
23 | Clc1ccc2c(c1)C1(CCCCC1)c1cccc(Cl)c1N2CCc1nnn[nH]1 [ML67-143, 2,5-dichloro-10-[2-(1H-tetrazol-5-yl)ethyl]spiro [acridine-9,1′-cyclohexane]] | Better than ML67-33; Not better than (ML67-142) | – | 8.6 to 38.5 | –
24 | CC1(C)c2ccccc2N(CCc2nnn[nH]2)c2ccccc21 [ML67-39, 9,9-dimethyl-10-[2-(1H-tetrazol-5-yl)ethyl]acridine] | Not better than ML67-33 | 29.2 | > 38.5 | –
25 | Brc1ccc2c(c1)C1(CCCCC1)c1cc(Br)ccc1N2CCc1nnn[nH]1 [ML67-145, 2,7-dibromo-10-[2-(1H-1,2,3,4-tetrazol-5-yl)ethyl]-10H-spiro[acridine-9,1′-cyclohexane]] | Better than ML67-33; Not better than (ML67-142) | – | 8.6 to 38.5 | –
26 | O=C(O)CCN1c2ccc(Cl)cc2C2(CCCCC2)c2cccc(Cl)c21 [ML67-140, 3-(2,5-dichlorospiro [acridine-9,1′-cyclohexane]-10-yl)propanoic acid] | Not better than ML67-33 | 57.7 | > 38.5 | –
